This assay relates to Chlorella sp. ATCC 7516. Description: Algal efficacy testing of dry paint films (modified ASTM 5589, 6-well plates). It counts as cell-based. On the procedure: These paints were then diluted with a biocide free acrylic/silicone based paint and mixed to prepare targeted concentrations of biocide combinations for the testing. The total biocides concentrations obtained were 125, 250, 500, 1000, 2000 and 5000 ppm. After biocides addition or dilution, the paints were mixed 90 seconds with the horse power shaker (AXEL 75M3372/Agitateur SO-10MI) until uniformity was achieved. […] After one day, the paints were applied to Schleicher & Schuell filter paper at 280 μm wet film thickness and dried for 3 days at room temperature avoiding direct exposure to sunlight. Square discs (1.8 cm×1.8 cm) were cut out from each panel and were used as the substrate for algal efficacy tests. This sample size allowed for an agar border when the sample disc was placed into the well of the test plate.
Algal efficacy was tested according to modified ASTM 5589 which is a standard accelerated test method for determining resistance of various coatings (including paints) to algal defacement. To accommodate for high-throughput screening, this method was scaled down from petri plates to 6-well plates. Bold Modified Basal Freshwater Nutrient Solution was used as growth medium for the algal culture and Bold's agar was used for the efficacy testing. A single coupon was placed with a pair of sterile forceps at the center of the agar plug (on top) with the painted surface facing upwards. The algal inoculum was prepared by diluting an exponentially growing culture of Chlorella sp. to 1×10^6 cfu/ml.
Each well that contains a tested coupon was inoculated with 1750 μl of algal suspension (1×10^6 cfu/ml) making sure that the whole surface (paint film as well as the agar surrounding it) was evenly covered. The plates were incubated at room temp (21° C.-25° C.) with cyclic exposure to 14 hours fluorescent light followed by 10 hours darkness, for a period of three weeks.
At the end of the incubation period the samples were scored for percent inhibition regarding color intensity compared to the blank sample
The SI is calculated based on F. C. Kull et. […]

These results are taken from patent US20190269132A1 (ROHM AND HAAS COMPANY, priority 2016, published 2019).

On to `O=c1[nH]sc2ccccc12` [BIT, 1,2-benzisothiazol-3(2H)-one], for which, where the note is “504 h, Chlorella, total conc 5000 ppm in paint, three weeks, colour intensity vs blank”, the inhibition at 5000 ppm is 95%. In addition, under “Chlorella sp., acrylic/silicone paint film on filter paper, three weeks incubation, pass level ≥75% inhibition”, the “Total conc, ppm (lowest total biocide concentration in paint reaching pass level of 75% inhibition)” value came out at 5000 ppm.
In the case of `O=c1[nH]c2c(c(=O)n1C1CCCCC1)CCC2` [LENACIL, 3-Cyclohexyl-6,7-dihydro-1H-cyclopentapyrimidine-2,4-(3H,5H)-dione], the “% inhibition” value (Chlorella, total conc 1′000 ppm in paint, three weeks, colour intensity vs blank) is 90%.
